Test results: article PMC4748415, “Impact of different cell penetrating peptides on the efficacy of antisense therapeutics for targeting intracellular pathogens” (Scientific Reports, 2016)
Several values for one entry are separate records, joined by “and”; a condition that tells them apart may be missing. Equal values may be shown once. Entries after “also recorded” stand apart in the source; their conditions may differ. Read-outs that look alike come from different tables or passages of the source. Marks after values point to notes of the source that are not given here.

Legend:
[1] = system: clinical isolates of L. monocytogenes; type: cell-based, Listeria monocytogenes; settings: for MIC50: concentration required to inhibit 50% of L. monocytogenes isolates (six isolates); for MIC: broth microdilution in low binding tubes, triplicates, 16 hour incubation
Description: (§1) The MICs of conjugated PNAs, free PNA, CPPs and untreated control against L. monocytogenes were determined using the broth microdilution method according to the Clinical and Laboratory Standards Institute (CLSI) guidelines with the following modifications. Briefly, low binding clear microcentrifuge tubes (USA scientific, Inc. Ocala, FL) were used in triplicates for each reaction instead of traditional 96-well plates. […] After a 16 hour incubation period (of test agent with bacteria), the number of viable bacteria was enumerated by serial dilution and counting on TSA plates. The MICs were repeated at least twice.

[2] = system: L. monocytogenes F4244; experiment: Concentration-dependent bacterial log reduction in pure culture; type: cell-based, Listeria monocytogenes; settings: for Log CFU/ml: pure culture F4244, 16 hour incubation; for Log CFU reduction: relative to control, pure culture F4244
Description: as §1

[3] = system: L. monocytogenes F4244; experiment: Time kill assay; type: cell-based, Listeria monocytogenes; settings: 12 hours; for bactericidal or bacteriostatic activity: L. monocytogenes, time kill at 32 μM; for time to complete eradication of Listeria: 32 μM PNA, 37 °C, samples every 2 hours, ~10^5 CFU/ml
Description: L. monocytogenes F4244 in logarithmic growth phase was diluted to ~10^5 CFU/ml and incubated with 32 μM of the five PNAs (in triplicates) at 37 °C for 12 hours. Samples were collected every two hours, serially diluted, and plated onto TSA plates. Plates were then incubated wat 37 °C for 24 hours before viable CFUs were determined.
Samples were collected every 20 minutes and processed as above.

[4] = system: L. monocytogenes F4244 inside infected J774A.1 cells; type: cell-based; settings: 4 hours; for Log CFU/ml: intracellular F4244 in J774A.1; for Log CFU reduction: intracellular F4244 in J774A.1, versus control
[5] = system: L. monocytogenes J0161 in infected C. elegans; experiment: C. elegans infection model; settings: 18 hours treatment; for Log CFUs/worm: 10 worms in triplicates; for Log CFUs reduction: versus water
Description: To test the efficacy of PNA in vivo we used Listeria-infected C. elegans. The temperature-sensitive sterile mutant strain C. elegans AU37 [sek-1(km4); glp-4(bn2) I] was used for this study. This strain is sterile at room temperature and can lay eggs only at 15 °C. Furthermore, mutation in the sek-1 gene of the p38 mitogen-activated protein kinase pathway (p38 MAPK pathway), makes this particular C. elegans strain more susceptible to Listeria infection[49][56]. Initially, the pathogenicity of three strains of Listeria (F4244, J0161 and ATCC19111) was tested in C. elegans as described before[24] to determine the most virulent strain to use for this study. […] Briefly, adult worms were grown for 5 days, at 15 °C (temperature that permits worms to lay eggs) on NGM agar plates seeded with a lawn of E. coli OP50. The eggs were harvested by bleaching[57] and maintained for 24 hours at room temperature with gentle agitation for hatching. Hatched larvae were transferred to a new NGM plate seeded with E. coli OP50 and were kept at room temperature for five days until worms reached the adult stage of growth. Adult worms were collected and washed three times with M9 media in a 1:10 ratio to remove E. coli before transfer to LB agar plates seeded with a lawn of L. monocytogenes J0161 for infection. After eight hours of infection, worms were collected and washed with M9 buffer five times before incubation with PNAs. Worms were transferred to low-binding microcentrifuge tubes (10 worms per tube). […] After treatment for 18 hours, worms were washed five times with M9 buffer. […] Samples were serially diluted and plated onto TSA plates containing 5 μg/ml nalidixic acid to select for Listeria.

[6] = system: L. monocytogenes F4244; experiment: Time kill assay; type: cell-based, Listeria monocytogenes; settings: 8 μM PNA, 37 °C, samples every 20 minutes, inoculum 2.4 × 10^5 CFU/ml
[7] = system: mitochondrial biogenesis in J774A.1 cells; experiment: Mitobiogenesis assay (In-Cell ELISA, COX-I/SDH-A); settings: three days, tested at 0.1, 1, 10 and 20 μM, COX-I/SDH-A ratio
Description: To measure the effect of PNA on the mitochondrial biogenesis, In-Cell ELISA Kit (MitoSciences Inc., Eugene, OR, USA) was used as per the manufacturer’s instructions[54][55]. Briefly, J774A.1 cells were seeded (approximately 40,000 cells per well) in 96-well plates and allowed to adhere. […] Cells were allowed to grow for approximately 3 days. Media were removed and cells were washed with PBS, then fixed with 4% paraformaldehyde. After fixing, cells were washed with PBS and permeabilization and blocking processes were done according to the manufacturer’s instructions. Primary antibodies to detect the levels of two proteins (subunit I of Complex IV (COX-I), that is mitochondrial DNA (mtDNA)-encoded), and the 70 kDa subunit of Complex II (SDH-A), a nuclear DNA (nDNA)-encoded were added and incubated for overnight at 4 °C. After incubation, cells were washed with PBS and secondary antibodies were added and incubated at room temperature for one hour. After washing, the expression of SDH-A and COX-1 were measured at 405 nm and 600 nm wavelength, respectively. The ratio between COX-I and SDH-A was calculated and the percent of inhibition of mitochondrial biogenesis was determined.

KFFKFFKFFK-O-cgatcattcaaa-NH2 [PKFF]
MIC50 [1]: 32 µM | MIC ([1]; strain ATCC 13932): 32 µM | MIC ([1]; strain ATCC 19111): 32 µM | MIC ([1]; strain ATCC 19112): 32 µM | MIC ([1]; strain ATCC 19114): 2 µM | MIC ([1]; strain F4244, no turbidity): 32 µM | MIC ([1]; strain J0161): 32 µM | Log CFU/ml ([2]; 1 µM PNA): 9.40±0.08 Log CFU/ml | Log CFU reduction ([2]; 1 µM PNA): -0.009 Log CFU | Log CFU/ml ([2]; 2 µM PNA): 9.35±0.05 Log CFU/ml | Log CFU reduction ([2]; 2 µM PNA): 0.041 Log CFU | Log CFU/ml ([2]; 4 µM PNA): 9.26±0.07 Log CFU/ml | Log CFU reduction ([2]; 4 µM PNA): 0.129 Log CFU | Log CFU/ml ([2]; 8 µM PNA): 8.93±0.35 Log CFU/ml | Log CFU reduction ([2]; 8 µM PNA): 0.46 Log CFU | Log CFU/ml ([2]; 16 µM PNA): 8.40±0.16 Log CFU/ml | Log CFU reduction ([2]; 16 µM PNA): 0.98 Log CFU | Log CFU/ml ([2]; 32 µM PNA): 6.63±0.59 Log CFU/ml | Log CFU reduction ([2]; 32 µM PNA): 2.78 Log CFU | bactericidal or bacteriostatic activity [3]: bacteriostatic effect | Log CFU/ml ([4]; 2 μM): 6.77 ± 0.03 Log CFU/ml | Log CFU reduction ([4]; 2 μM): −0.031 Log CFU | Log CFU/ml ([4]; 4 μM): 6.76 ± 0.08 Log CFU/ml | Log CFU reduction ([4]; 4 μM): −0.029 Log CFU | Log CFU/ml ([4]; 8 μM): 6.12 ± 0.32 Log CFU/ml | Log CFU reduction ([4]; 8 μM): 0.6 Log CFU | Log CFUs/worm ([5]; 16 µM): 3.43±0.2 Log CFUs/worm | Log CFUs reduction ([5]; 16 µM): 0.71 Log CFUs | Log CFUs/worm ([5]; 32 µM): 3.35±0.25 Log CFUs/worm | Log CFUs reduction ([5]; 32 µM): 1.03 Log CFUs

RFRRFRRFRRFRXB-O-cgatcattcaaa-NH2 [PRFR]
MIC50 [1]: 4 µM | MIC ([1]; strain ATCC 13932): 4 µM | MIC ([1]; strain ATCC 19111): 8 µM | MIC ([1]; strain ATCC 19112): 4 µM | MIC ([1]; strain ATCC 19114): 1 µM | MIC ([1]; strain F4244, no turbidity): 2 µM | MIC ([1]; strain J0161): 16 µM | Log CFU/ml ([2]; 1 µM PNA): 9.26±0.09 Log CFU/ml | Log CFU reduction ([2]; 1 µM PNA): 0.13 Log CFU | Log CFU/ml ([2]; 2 µM PNA): 7.48±0.69 Log CFU/ml | Log CFU reduction ([2]; 2 µM PNA): 1.91 Log CFU | Log CFU/ml ([2]; 4 µM PNA): 6.10±0.63 Log CFU/ml | Log CFU reduction ([2]; 4 µM PNA): 3.29 Log CFU | Log CFU/ml ([2]; 8 µM PNA): bacterial clearance; also recorded: Cleared | Log CFU reduction ([2]; 8 µM PNA): 9.39 Log CFU | Log CFU/ml ([2]; 16 µM PNA): Cleared | Log CFU reduction ([2]; 16 µM PNA): 9.39 Log CFU | Log CFU/ml ([2]; 32 µM PNA): Cleared | Log CFU reduction ([2]; 32 µM PNA): 9.39 Log CFU | time to complete eradication of Listeria [3]: ≤ 2 h | bactericidal or bacteriostatic activity [3]: bactericidal activity | Log CFU/ml ([4]; 2 μM): 5.89 ± 0.65 Log CFU/ml | Log CFU reduction ([4]; 2 μM): 0.84 Log CFU | Log CFU/ml ([4]; 4 μM): 5.10 ± 0.28 Log CFU/ml | Log CFU reduction ([4]; 4 μM): 1.63* Log CFU | Log CFU/ml ([4]; 8 μM): 4.29 ± 0.04 Log CFU/ml | Log CFU reduction ([4]; 8 μM): 2.43* Log CFU | time to complete elimination of starting inoculum [6]: ≤ 20 min | Log CFUs/worm ([5]; 16 µM): 2.85±0.60 Log CFUs/worm | Log CFUs reduction ([5]; 16 µM): 1.3 Log CFUs | Log CFUs/worm ([5]; 32 µM): 1.86±0.26 Log CFUs/worm | Log CFUs reduction ([5]; 32 µM): 2.52 Log CFUs

RQIKIWFQNRRMKWKK-O-cgatcattcaaa-NH2 [PANT]
MIC50 [1]: 32 µM | MIC ([1]; strain ATCC 13932): 32 µM | MIC ([1]; strain ATCC 19111): 32 µM | MIC ([1]; strain ATCC 19112): 32 µM | MIC ([1]; strain ATCC 19114): 1 µM | MIC ([1]; strain F4244, no turbidity): 16 µM | MIC ([1]; strain J0161): 32 µM | Log CFU/ml ([2]; 1 µM PNA): 9.30±0.06 Log CFU/ml | Log CFU reduction ([2]; 1 µM PNA): 0.095 Log CFU | Log CFU/ml ([2]; 2 µM PNA): 9.27±0.21 Log CFU/ml | Log CFU reduction ([2]; 2 µM PNA): 0.119 Log CFU | Log CFU/ml ([2]; 4 µM PNA): 9.14±0.05 Log CFU/ml | Log CFU reduction ([2]; 4 µM PNA): 0.25 Log CFU | Log CFU/ml ([2]; 8 µM PNA): 8.09±0.95 Log CFU/ml | Log CFU reduction ([2]; 8 µM PNA): 1.3 Log CFU and 1.30 Log CFU | Log CFU/ml ([2]; 16 µM PNA): 6.73±0.48 Log CFU/ml | Log CFU reduction ([2]; 16 µM PNA): 2.66 Log CFU | Log CFU/ml ([2]; 32 µM PNA): bacterial clearance; also recorded: Cleared | Log CFU reduction ([2]; 32 µM PNA): 9.39 Log CFU | time to complete eradication of Listeria [3]: 10 h | bactericidal or bacteriostatic activity [3]: bactericidal activity | Log CFU/ml ([4]; 2 μM): 6.82 ± 0.02 Log CFU/ml | Log CFU reduction ([4]; 2 μM): −0.09 Log CFU | Log CFU/ml ([4]; 4 μM): 6.67 ± 0.05 Log CFU/ml | Log CFU reduction ([4]; 4 μM): 0.06 Log CFU | Log CFU/ml ([4]; 8 μM): 4.65 ± 0.34 Log CFU/ml | Log CFU reduction ([4]; 8 μM): 2.07 Log CFU | Log CFUs/worm ([5]; 16 µM): 3.88±0.15 Log CFUs/worm | Log CFUs reduction ([5]; 16 µM): 0.27 Log CFUs | Log CFUs/worm ([5]; 32 µM): 2.49±0.48 Log CFUs/worm | Log CFUs reduction ([5]; 32 µM): 1.89 Log CFUs

CNC(C)C1CCC(N)C(OC2C(N)CC(N)C(OC3OCC(C)(O)C(NC)C3O)C2O)O1 (centres unmarked) [Gentamicin, gentamicin, reference compound]
Log CFUs/worm ([5]; 16 µM): 3.52±0.55 Log CFUs/worm | Log CFUs reduction ([5]; 16 µM): 0.63 Log CFUs | Log CFUs/worm ([5]; 32 µM): 2.18±0.6 Log CFUs/worm | Log CFUs reduction ([5]; 32 µM): 2.2 Log CFUs

CC1(C)S[C@@H]2[C@H](NC(=O)[C@H](N)c3ccccc3)C(=O)N2[C@H]1C(=O)O [ampicillin]
inhibition of mitochondrial protein synthesis (mitobiogenesis) [7]: does not significantly inhibit mitobiogenesis
